{
  "source": "paper PMC3328449",
  "about": "“Inhibition of Diacylglycerol–Sensitive TRPC Channels by Synthetic and Natural Steroids” (PLoS ONE, 2012)",
  "key": {"A7r5 cells": {"test_system": "A7r5 cells", "assay": "Whole-cell patch clamp, AVP-induced receptor-operated cation currents in A7r5 cells", "format": "cell-based", "details": "10 µM, 100 nM AVP, measured at −70 mV, reversible, n = 8", "procedure": "A7r5 cells (ATCC, Rockville, USA) were maintained in DMEM (with glutaMAX I, 4.5 g/l glucose and […] sodium pyruvate), supplemented with 10% (v/v) fetal bovine serum (PAA, Pasching, Austria).\nThe whole-cell patch clamp technique was employed to measure ion currents from single cells. Heat-polished patch pipettes with resistances of 2–4 MΩ were pulled from borosilicate glass capillaries (Hilgenberg, Malsfeld, Germany) using a DMZ-Universal puller (Zeitz-Instruments, Munich, Germany) and filled with standard intracellular solution containing: 120 mM CsOH, 120 mM gluconic acid, 2 mM MgCl2, 3 mM CaCl2, 5 mM Cs4-BAPTA, 10 mM HEPES (pH 7.4 adjusted with gluconic acid). For agonist-independent stimulation of TRPC currents the intracellular solution was supplemented with 30 µM AlCl3 and 10 mM NaF and cells were infused with AlF4 ^− through the patch pipette. AlF4 ^− is a non-specific activator of heterotrimeric G proteins that consequently leads to increased phospholipase C activity and TRPC channel activation. […]\n(§1) Cells grown on poly-L-lysine-coated coverslips were continuously superfused with extracellular solution and substances were applied using an ALA BPS-8 perfusion system (ALA Scientific Instruments, Westbury, USA). […] Cells were held at −70 mV, and current-voltage (I–V) relationships were routinely measured every 2 or 3 s by applying voltage ramps (180 ms) from −100 mV to +80 mV. […]"}, "mTRPC5": {"target": "T1, mTRPC5 (Mus musculus, UniProt Q9QX29)", "T1 construct": "expressed in transfected cells", "T1 sequence (Q9QX29 1-975)": "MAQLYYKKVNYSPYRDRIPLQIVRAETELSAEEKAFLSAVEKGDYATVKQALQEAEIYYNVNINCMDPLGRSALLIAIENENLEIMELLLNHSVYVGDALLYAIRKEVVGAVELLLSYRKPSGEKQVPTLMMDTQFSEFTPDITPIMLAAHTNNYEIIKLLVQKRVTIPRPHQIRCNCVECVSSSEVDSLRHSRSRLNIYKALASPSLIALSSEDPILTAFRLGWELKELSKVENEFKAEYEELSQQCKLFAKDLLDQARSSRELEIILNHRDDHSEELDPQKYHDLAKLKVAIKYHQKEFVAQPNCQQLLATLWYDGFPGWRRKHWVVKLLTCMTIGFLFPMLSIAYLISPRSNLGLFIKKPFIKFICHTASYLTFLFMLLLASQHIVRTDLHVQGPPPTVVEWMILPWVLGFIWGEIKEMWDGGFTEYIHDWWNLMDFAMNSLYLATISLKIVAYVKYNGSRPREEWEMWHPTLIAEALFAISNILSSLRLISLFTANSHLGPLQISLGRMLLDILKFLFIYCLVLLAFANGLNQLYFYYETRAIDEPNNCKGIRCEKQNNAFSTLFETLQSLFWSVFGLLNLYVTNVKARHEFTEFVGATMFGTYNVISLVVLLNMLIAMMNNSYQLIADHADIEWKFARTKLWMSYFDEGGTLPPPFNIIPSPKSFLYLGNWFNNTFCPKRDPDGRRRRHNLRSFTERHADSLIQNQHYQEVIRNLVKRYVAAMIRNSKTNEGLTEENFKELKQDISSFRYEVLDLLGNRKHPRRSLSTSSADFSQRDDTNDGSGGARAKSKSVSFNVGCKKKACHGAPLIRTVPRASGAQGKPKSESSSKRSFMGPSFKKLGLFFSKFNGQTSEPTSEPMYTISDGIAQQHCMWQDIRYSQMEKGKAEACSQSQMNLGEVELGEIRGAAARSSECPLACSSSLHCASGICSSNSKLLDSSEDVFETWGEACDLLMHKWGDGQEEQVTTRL", "assay": "Whole-cell patch clamp, AlF4- evoked TRPC5 currents", "format": "cell-based", "procedure": "Cells were grown at 37°C in a humidified atmosphere (5% or 7% CO2) under standard cell culture conditions. Stable human embryonic kidney (HEK) cell lines expressing recombinant mTRPC4ß (GenBank accession number AAC05178); mTRPC5 (GenBank accession number NM_009428) or hTRPC6 (GenBank accession number AF080394) under the control of a tetracycline-inducible promoter were generated using the Flp-In T-Rex (FITR) system (Invitrogen, Karlsruhe, Germany). […]\nas §1\nFor statistical analysis, analysis of variance was performed with Origin 6.0 software (Microcal Software Inc., Northampton, USA). […] IC50 were calculated with SigmaPlot (Systat software, San Jose, USA) using the sigmoidal Hill-model: f = 100 (C^n/(IC50 ^n+C^n)); where f is the inhibition, C is the applied drug concentration and n is the Hill coefficient. […] Averaged data is expressed as means ± SEM."}},
  "note": "pIC50: −log10 of the molar value. “And” between values parts separate entries of the source, which are not always exact repeats. Equal entries are not always repeated.",
  "data": [
    {"compound": "C#C[C@]1(OC(C)=O)CC[C@H]2[C@@H]3CCC4=CC(=NO)CC[C@@H]4[C@H]3CC[C@@]21CC", "note": "(mixture of isomers) [norgestimate]", "values": [
      {"measurement": "Reduction of AVP-induced receptor-operated cation currents", "setting": "A7r5 cells", "result": "86.5±6.0", "unit": "%"},
      {"measurement": "Hill slope, TRPC5 current inhibition", "setting": "mTRPC5; fit to dose-response equation", "result": 1.43},
      {"measurement": "pIC50", "setting": "mTRPC5; whole-cell patch clamp, AlF4- infusion, TRPC5 HEK-FITR cells, read-out: IC50, TRPC5 current inhibition", "result": "< 5.00 and 4.87 and ~4.85"}
    ]}
  ]
}
